Laboratory results published in patent US8440654B2, “Thieno- and furo-pyrimidine modulators of the histamine H4 receptor” (Janssen Pharmaceutica NV, priority 2007, dated 2013).
Counter-ions that a name gives are not always drawn.

Target: T1, human histamine H4 receptor (Homo sapiens, UniProt Q9H3N8)
T1 construct: expressed in transfected cells; host or cells: SK-N-MC cells or COS7 cells, transiently transfected with pH4R; membrane preparation
Assay: Binding Assay on Recombinant Human Histamine H4 Receptor
Conditions: competition binding with 3H-histamine, membranes of SK-N-MC or COS7 cells transfected with human H4R; average of results obtained
Protocol: Biological Methods: Binding Assay on Recombinant Human Histamine H4 Receptor.
SK-N-MC cells or COS7 cells were transiently transfected with pH4R and grown in 150 cm^2 tissue culture dishes. Cells were washed with saline solution, scraped with a cell scraper and collected by centrifugation (1000 rpm, 5 min). Cell membranes were prepared by homogenization of the cell pellet in 20 mM Tris-HCl with a polytron tissue homogenizer for 10 sec at high speed. Homogenate was centrifuged at 1000 rpm for 5 min at 4° C. The supernatant was then collected and centrifuged at 20,000×g for 25 min at 4° C. The final pellet was resuspended in 50 mM Tris-HCl. Cell membranes were incubated with ^3H-histamine (5-70 nM) in the presence or absence of excess histamine (10,000 nM). Incubation occurred at room temperature for 45 min. Membranes were harvested by rapid filtration over Whatman GF/C filters and washed 4 times with ice-cold 50 mM Tris HCl. Filters were then dried, mixed with scintillant and counted for radioactivity. SK-N-MC or COS7 cells expressing human histamine H4 receptor were used to measure the affinity of binding of other compounds and their ability to displace ^3H-ligand binding by incubating the above-described reaction in the presence of various concentrations of inhibitor or compound to be tested. For competition binding studies using ^3H-histamine, K values were calculated, based on an experimentally determined KD value of 5 nM and a ligand concentration of 5 nM, according to Y.-C.

T1 sequence (Q9H3N8 whole entry): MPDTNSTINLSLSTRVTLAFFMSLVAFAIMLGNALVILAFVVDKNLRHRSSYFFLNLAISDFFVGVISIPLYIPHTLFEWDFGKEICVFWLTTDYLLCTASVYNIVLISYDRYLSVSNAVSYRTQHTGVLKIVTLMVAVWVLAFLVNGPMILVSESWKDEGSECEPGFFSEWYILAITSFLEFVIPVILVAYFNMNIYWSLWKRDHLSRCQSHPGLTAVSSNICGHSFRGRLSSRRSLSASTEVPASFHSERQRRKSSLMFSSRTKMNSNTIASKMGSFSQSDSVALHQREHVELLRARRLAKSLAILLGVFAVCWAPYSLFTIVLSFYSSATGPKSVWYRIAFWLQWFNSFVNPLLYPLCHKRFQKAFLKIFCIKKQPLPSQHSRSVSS

Compared with c1nc(N2CCNCC2)c2sc3c(c2n1)CCCC3 [Example 11, 4-piperazin-1-yl-6,7,8,9-tetrahydro-benzo[4,5]thieno[3,2-d]pyrimidine], Nc1nc(N2CCCNCC2)c2sc3c(c2n1)CC(F)(F)CC3 [Example 114, 4-(1,4-Diazepan-1-yl)-8,8-difluoro-6,7,8,9-tetrahydro[1]benzothieno[3,2-d]pyrimidin-2-amine trifluoroacetate] is 220-fold lower in Ki: 454 nM for the first, 2.1 nM for the second. The second binds more tightly here.

Compared with Nc1nc(N2CC3CCC(C2)N3)c2oc3c(c2n1)CCCC3 [Example 26, 4-(3,8-Diazabi-cyclo[3.2.1]oct-3-yl)-6,7,8,9-tetrahydro[1]benzofuro[3,2-d]pyrimidin-2-amine], Nc1nc(N2C[C@H]3CCN[C@H]3C2)c2oc3c(c2n1)CCCC3 [Example 7, 4-[(3aR,6aR)-Hexahydropyrrolo[3,4-b]pyrrol-5(1H)-yl]-6,7,8,9-tetrahydro[1]benzofuro[3,2-d]pyrimidin-2-amine] is 11-fold lower in Ki: 32 nM for the first, 3 nM for the second.

Going from NCCNc1nc(N)nc2c3c(oc12)CCCC3 [Example 25, N4-(2-Aminoethyl)-6,7,8,9-tetrahydro[1]benzofuro[3,2-d]pyrimidine-2,4-diamine trifluoroacetic acid salt] to CNC1CCN(c2nc(N)nc3c4c(oc23)CCCC4)C1 (stereo in doubt) [Example 21, 4-[(3R)-3-(Methyl-amino)pyrrolidin-1-yl]-6,7,8,9-tetrahydro[1]benzo-furo[3,2-d]pyrimidin-2-amine trifluoro acid salt], the Ki falls from 507 nM to 3 nM (170-fold). The second binds more tightly here.

Going from NCCN1CCN(c2nc(N)nc3c4c(sc23)CCCC4)CC1 [Example 49, 4-[4-(2-Aminoethyl)piper-azin-1-yl]-6,7,8,9-tetrahy-dro[1]benzothieno[3,2-d]pyrimidin-2-amine tri-fluoroacetic acid salt] to Nc1nc(N2CC(N)C2)c2sc3c(c2n1)CCCC3 [Example 42, 4-(3-Aminoazetidin-1-yl)-6,7,8,9-tetrahydro[1]benzo-thieno[3,2-d]pyrimidin-2-amine trifluoroacetic acid salt], the Ki falls from 2260 nM to 467 nM (4.8-fold).

Going from CN1CCN(c2nc(N)nc3c4c(sc23)CCC(F)(F)C4)CC1 [Example 57, 8,8-Difluoro-4-(4-methyl-piperazin-1-yl)-6,7,8,9-tetrahydro[1]benzothieno[3,2-d]pyrimidin-2-amine trifluoroacetic acid salt] to Cc1csc2c(N3CCN(C)CC3)nc(N)nc12 [Example 13, 7-Methyl-4-(4-methyl-piperazin-1-yl)thieno-amine trifluoroacetic acid salt], the Ki rises from 23 nM to 574 nM (25-fold). The first binds more tightly here.

First: CN(CCN)c1nc(N)nc2c3c(sc12)CCC(F)(F)C3 [Example 115, N^4-(2-Aminoethyl)-8,8-difluoro-N^4-methyl-6,7,8,9-tetrahydro[1]benzothieno[3,2-d]pyrimidine-2,4-diamine trifluoroacetate]
Second: NCCNc1nc(N)nc2c3c(sc12)CCC(F)(F)C3 [Example 128, N^4-(2-Aminoethyl)-8,8-difluoro-6,7,8,9-tetrahydro[1]benzothieno[3,2-d]pyrimidine-2,4-diamine hydrochloride]
The Ki of the first is 7.1-fold lower: 21 nM for the first, 150 nM for the second.

First: CN[C@@H]1CN(c2nc(N)nc3c4c(sc23)CCCC4)C[C@@H]1O [Example 38, (3S,4S)-1-(2-Amino-6,7,8,9-tetrahydro[1]benzothieno[3,2-d]pyrimidin-4-yl)-4-(methyl-amino)pyrrolidin-3-of tri-fluoroacetic acid salt]
Second: CN[C@H]1CCN(c2nc(N)nc3c4c(sc23)CCCC4)C1 [Example 55, 4-[(3S)-3-(Methyl-amino)pyrrolidin-1-yl]-6,7,8,9-tetrahydro[1]benzo-thieno[3,2-d]pyrimidin-2-amine trifluoroacetic acid salt]
The Ki of the first is 9.1-fold higher: 300 nM for the first, 33 nM for the second.

Nc1nc(N2CC[C@@H](N)C2)c2oc3c(c2n1)CC(F)(F)CC3 [Example 117, 4-[(3R)-3-Aminopyrrolidin-1-yl]-8,8-difluoro-6,7,8,9-tetrahydro[1]benzofuro[3,2-d]pyrimidin-2-amine hydrochloride] was tested, and the Ki was 6.8 nM.
